Inhibition data for 18 compounds are collected here from US20080045489A1, “3,4-DI-SUBSTITUTED CYCLOBUTENE-1,2-DIONES AS CXC-CHEMOKINE RECEPTOR LIGANDS” (priority 2006, published 2008).

Molecules are shown by their SMILES.

For the assay, the target named is T1, CXCR2 (Homo sapiens, UniProt P25025).
T1 construct: expressed in transfected cells; host or cells: Ba/F3 (Baf3) cells; membranes, clone designation [Hi70]
T1 sequence (P25025 1-360): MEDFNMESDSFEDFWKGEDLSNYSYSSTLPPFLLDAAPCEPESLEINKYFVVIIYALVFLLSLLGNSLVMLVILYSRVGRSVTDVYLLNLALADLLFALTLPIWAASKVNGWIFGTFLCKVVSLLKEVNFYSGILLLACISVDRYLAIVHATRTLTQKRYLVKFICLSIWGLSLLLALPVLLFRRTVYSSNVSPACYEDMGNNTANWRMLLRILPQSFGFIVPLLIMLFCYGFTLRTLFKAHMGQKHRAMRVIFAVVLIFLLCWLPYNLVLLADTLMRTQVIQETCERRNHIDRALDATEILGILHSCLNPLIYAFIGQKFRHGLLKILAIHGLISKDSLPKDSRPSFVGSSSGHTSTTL
Briefly: [35S]GTPγS Binding Assay: inhibition of agonist (GROα) stimulated [35S]GTPγS exchange in membranes expressing CXCR2. The format is biochemical. The settings on record: 1 h; 3 nM compound; Baf3/hCXCR2 membranes; percent inhibition at highest chemokine (hGROα) concentration 500 nM; control (no compound) = 0%, standard = 100%; read-out: % Inhibition GTPyS. On the procedure: [^35S]GTPγS Binding Assay:
This assay measures the inhibition of agonist (GROα) stimulated guanosine 5′-[γ-^35S]triphospate ([^35S]GTPγS, triethylammonium salt) exchange in membranes expressing CXCR2.
For each assay point, 2 μg of membrane (Baf3/hCXCR22 [Hi70]), 200 μg wheat germ agglutinin-coated SPA beads (WGA-SPA; Amersham, Arlington Heights, Ill.), 3 μM guanosine 5′-diphosphate (GDP) ±3 nM compound are pre-incubated for 3 hrs at room temperature (mixing by inversion) in SPA binding buffer (50 mM TRIS-HCL, 1 mM CaCl2, 5 mM MgCl2, 50 mM NaCl, 0.002% NaN3, 0.1% BSA, 10 μg/ml saponin, pH=7.6).
The bead, membrane, compound mixture is transferred to a 96-well Isoplate (Wallac, Gaithersburg, Md.) and pre-incubated for 60 min with concentrations of chemokine (hGROα) ranging from 500 nM to 1 nM with a no chemokine sample serving as a control. The GTPγS exchange reaction was initiated by the addition of 0.1 nM [^35S]GTPγS and the incubation for 60 min at room temperature. Assay is terminated by the addition of 10 μl “Stop Solution” (0.5M Na-EDTA; 10 μM GDP).
Membrane-bound [^35S]GTPγS was measured using a 1450 Microbeta Trilux counter (Wallac, Gaithersburg, Md.). Data is calculated as percent inhibition at the highest chemokine concentration (500 nM). The control (No compound addition), which is set to 0%, versus the % inhibition of the standard, which is set at 100%. The standard used is: [drawing 19]
In general terms: GTPγS resists hydrolysis and so accumulates on activated G proteins.
For orientation: inhibition means the drop in the measured response relative to a control, in per cent. For the compound `CC[C@@H](Nc1c(Nc2cccc(C(=O)N3CCOCC3)c2O)c(=O)c1=O)c1cc(C(C)C)c(C)o1` [Compound 1, 4-[2-HYDROXY-3-[[2-[[1(R)-[5-METHYL- 4-(1-METHYLETHYL)-2-FURANYL]- PROPYL]AMINO]-3,4-DIOXO-1- CYCLOBUTEN-1-YL]AMINO]BENZOYL]- MORPHOLINE], the inhibition at 0.003 µM is 137%.
Under `CC[C@@H](Nc1c(Nc2cccc(C(=O)N3CCCC3)c2O)c(=O)c1=O)c1cc(C(C)C)c(C)o1` [Compound 2, 1-[2-HYDROXY-3-[[2-[[1(R)-[5-METHYL- 4-(1-METHYLETHYL)-2-FURANLY]- PROPYL]AMINO]-3,4-DIOXO-1- CYCLOBUTEN-1-YL]AMINO]-BENZOYL]PYRROLIDINE] stands 132%; under `CC[C@@H](Nc1c(Nc2cccc(C(=O)N(C)C)c2O)c(=O)c1=O)c1cc(Br)c(C)o1` [Compound 3, 3-[[2-[[1(R)-(4-BROMO-5-METHYL-2- FURANYL)PROPYL]AMINO]-3,4-DIOXO- 1-CYCLOBUTEN-1-YL]AMINO]-2- HYDROXY-N,N-DIMETHYLBENZAMIDE], 122%.
Regarding `CC[C@@H](Nc1c(Nc2cccc(C(=O)N(C)C)c2O)c(=O)c1=O)c1cc(Cl)c(C)o1` [Compound 4, 3-[[2-[[1(R)-(4-CHLORO-5-METHYL-2- FURANYL)PROPYL]AMINO]-3,4-DIOXO- 1-CYCLOBUTEN-1-YL]AMINO]-2- HYDROXY-N,N-DIMETHYLBENZAMIDE], the inhibition at 0.003 µM turned out to be 120%.
In the case of `CC[C@@H](Nc1c(Nc2cccc(C(=O)N3CC[C@H](O)C3)c2O)c(=O)c1=O)c1cc(Br)c(C)o1` [Compound 5, 1-[3-[[2-[[1(R)-(4-BROMO-5-METHYL-2- FURANYL)PROPYL]AMINO]-3,4-DIOXO- 1-CYCLOBUTEN-1-YL]AMINO]-2- HYDROXYBENZOYL]-3(S)- PYRROLIDINOL], the inhibition at 0.003 µM was determined as 119%.
Next, `CC[C@@H](Nc1c(Nc2cccc(C(=O)N3CCC3)c2O)c(=O)c1=O)c1cc(C2CC2)c(C)o1` [Compound 6, 1-[3-[[2-[[1(R)-(4-CYCLOPROPYL-5- METHYL-2-FURANYL)PROPYL]AMINO]- 3,4-DIOXO-1-CYCLOBUTEN-1- YL]AMINO]-2-HYDROXYBENZOYL]- AZETIDINE]: 115%.
Regarding `CC[C@@H](Nc1c(Nc2cccc(C(=O)N3CCOCC3)c2O)c(=O)c1=O)c1cc(Br)c(C)o1` [Compound 7, 4-[3-[[2-[[1(R)-(4-BROMO-5-METHYL-2- FURANYL)PROPYL]AMINO]-3,4-DIOXO- 1-CYCLOBUTEN-1-YL]AMINO]-2- HYDROXYBENZOYL]MORPHOLINE], the inhibition at 0.003 µM came to 114%.
Next, `CC[C@@H](Nc1c(Nc2cccc(C(=O)N(C)C)c2O)c(=O)c1=O)c1cc(C(C)C)c(C)o1` [Compound 8, 2-HYDROXY-N,N-DIMETHYL-3-[[2- [[1(R)-[5-METHYL-4-(1-METHYLETHYL)- 2-FURANYL]PROPYL]AMINO]-3,4- DIOXO-1-CYCLOBUTEN-1-YL]AMINO]- BENZAMIDE]: 112%.
Under `CC[C@@H](Nc1c(Nc2cccc(C(=O)N3CCCC3)c2O)c(=O)c1=O)c1cc(Br)c(C)o1` [Compound 9, 1-[3-[[2-[[1(R)-(4-BROMO-5-METHYL-2- FURANYL)PROPYL]AMINO]-3,4-DIOXO- 1-CYCLOBUTEN-1-YL]AMINO]-2- HYDROXYBENZOYL]PYRROLIDINE] stands 110%; under `CC[C@@H](Nc1c(Nc2cccc(C(=O)N(C)C)c2O)c(=O)c1=O)c1cc(C(C)C)c(Br)o1` [Compound 10, 3-[[2-[[1(R)-[5-BROMO-4-(1-METHYL- ETHYL)-2-FURANYL]PROPYL]AMINO]- 3,4,-DIOXO-1-CYCLOBUTEN-1-YL]- AMINO]-2-HYDROXY-N,N-DIMETHYL- BENZAMIDE], 109%.
Under `CC[C@@H](Nc1c(Nc2cccc(C(=O)N(C)C)c2O)c(=O)c1=O)c1cc(C2CCCC2)c(C)o1` [Compound 11, 3-[[2-[[1(R)-(4-CYCLOPENTYL-5- METHYL-2-FURANYL)PROPYL]AMINO]- 3,4-DIOXO-1-CYCLOBUTEN-1-YL]- AMINO]-2-HYDROXY-N,N-DIMETHYL- BENZAMIDE] stands 109%; under `CC[C@@H](Nc1c(Nc2cccc(C(=O)N(C)C)c2O)c(=O)c1=O)c1cc(C2CC2)c(C)o1` [Compound 12, 3-[[2-[[1(R)-(4-CYCLOPROPYL-5- METHYL-2-FURANYL)PROPYL]AMINO]- 3,4-DIOXO-1-CYCLOBUTEN-1-YL]- AMINO]-2-HYDROXY-N,N-DIMETHYL- BENZAMIDE], 107%; under `CC[C@@H](Nc1c(Nc2cccc(C(=O)N(C)C)c2O)c(=O)c1=O)c1cc(C(C)C)c(C2CC2)o1` [Compound 13, 3-[[2-[[1(R)-[5-CYCLOPROPYL-4-(1- METHYLETHYL)-2-FURANYL]PROPYL]- AMINO]-3,4-DIOXO-1-CYCLOBUTEN-1- YL]AMINO]-2-HYDROXY-N,N- DIMETHYLBENZAMIDE], 105%.
With `CC[C@@H](Nc1c(Nc2cccc(C(=O)N3CCOCC3)c2O)c(=O)c1=O)c1cc(C2CC2)c(C)o1` [Compound 14, 4-[3-[[2-[[1(R)-(4-CYCLOPROPYL-5- METHYL-2-FURANYL)PROPYL]AMINO]- 3,4-DIOXO-1-CYCLOBUTEN-1-YL]- AMINO]-2-HYDROXYBENZOYL]- MORPHOLINE], the inhibition at 0.003 µM came out at 103%.
With `CCc1oc([C@@H](CC)Nc2c(Nc3cccc(C(=O)N4CCC4)c3O)c(=O)c2=O)cc1Br` [Compound 15, 1-[3-[[2-[[1(R)-(4-BROMO-5-ETHYL-2- FURANYL)PROPYL]AMINO]-3,4-DIOXO- 1-CYCLOBUTEN-1-YL]AMINO]-2- HYDROXYBENZOYL]AZETIDINE], the inhibition at 0.003 µM was found to be 103%.
Next, `CC[C@@H](Nc1c(Nc2cccc(C(=O)N3CC[C@@H](O)C3)c2O)c(=O)c1=O)c1cc(Br)c(C)o1` [Compound 16, 1-[3-[[2-[[1(R)-(4-BROMO-5-METHYL-2- FURANYL)PROPYL]AMINO]-3,4-DIOXO- 1-CYCLOBUTEN-1-YL]AMINO]-2- HYDROXYBENZOYL]-3(R)- PYRROLIDINOL]: 101%; `CC[C@@H](Nc1c(Nc2cccc(C(=O)N3CCC3)c2O)c(=O)c1=O)c1cc(C(C)C)c(C)o1` [Compound 17, 1-[2-HYDROXY-3-[[2-[[1(R)-[5-METHYL- 4-(1-METHYLETHYL)-2-FURANYL]- PROPYL]AMINO]-3,4-DIOXO-1- CYCLOBUTEN-1-YL]AMINO]- BENZOYL]AZETIDINE]: 100%; `CCc1oc([C@@H](CC)Nc2c(Nc3cccc(C(=O)N(C)C)c3O)c(=O)c2=O)cc1Br` [Compound 18, 3-[[2-[[1(R)-(4-BROMO-5-ETHYL-2- FURANYL)PROPYL]AMINO]-3,4-DIOXO- 1-CYCLOBUTEN-1-YL]AMINO]-2- HYDROXY-N,N-DIMETHYLBENZAMIDE]: 99%.
